Laboratory results: patent publication US10172879B2, “Nanocomplexes for co-delivering a drug and siRNA and uses thereof” (D.R.NANO CO., LTD, priority 2015, dated 2019)
d = 2'-deoxy (DNA)

Test: Serum stability assay (50% serum, 37° C., gel electrophoresis)
Type: in vitro ADME, bovine
Details: 50% serum media at 37° C., 0-24 h; HMplex N/P=4
Protocol: In vitro cytotoxicity studies of HMplexes were performed against normal cells (MRC-5 and NIH-3T3) and cancer cells (MDA-MB-231) using the colorimetric MTT assay. Cells were treated with HMplexes at various concentrations for 4 h and then incubated in a serum-free medium for another 44 h after washing twice with cold PBS (pH 7.4). After washing with PBS, the cells were treated with MTT reagents and the absorbance at 540 nm was measured with a microplate reader (Spectra Max 340, Molecular Devices, Sunnyvale, Calif., USA). The complex stability of HMplexes was evaluated by a heparin polyanion competition assay and a serum stability assay. For the heparin polyanion competition assay, HMplexes containing 1 μg siRNA were incubated with varying amounts of heparin (0-200 μg) for 30 min at room temperature and then subjected to 2% agarose gel electrophoresis. The decomplexed siRNA was detected with SYBR Gold staining. For serum stability studies, HMplexes or naked siRNA were incubated in 50% FBS/PBS (pH 7.4) at 37° C. for predetermined time periods (0-24 h). Aliquots from each sample were analyzed by 2% agarose gel electrophoresis and visualized with SYBR Gold.

free siRNA: Custom Bcl-2 siRNA (sense Seq ID No. 1-dTdT; antisense Seq ID No. 2-dTdT), uncomplexed (sense GUACAUCCAUUAUAAGCUG; antisense CAGCUUAUAAUGGAUGUAC; RNA, 3' dTdT, backbone not given here)
degradation of siRNA in serum: completely disappeared at 24 h
